This note sets out measurements from patent US11845752B2, “Substituted imidazo[1,5-a]pyrazines for the treatment of hepatitis B” (ALIGOS THERAPEUTICS, INC., priority 2020, dated 2023).

The test relates to HBV. The experiment in a line: HBV-DNA antiviral assay using HepG2.117 cells (intracellular HBV DNA by qPCR). Format: cell-based, HBV genotype D. As to conditions: Hepatitis B virus, HepG2.117, 72 h, HBV DNA inhibition, 3 days incubation, read-out: EC50. As to the method: The following assay procedure describes the HBV antiviral assay, using HepG2.117 cells, which carry a stably integrated genotype D HBV genome under the control of a Tet-off promoter, and intracellular HBV DNA quantification as endpoint. Cell viability is assessed in parallel by measuring the intracellular ATP content using ATPlite (Perkin Elmer).
On day 0, HepG2.117 cells (which are maintained in routine cell culture with doxycycline present in the medium at a final concentration of 1 μg/mL) were seeded in 96-well plates (white with clear bottom) at a density of 2.0×10^4 cells/well (0.1 mL/well) in medium without doxycycline to induce pgRNA transcription and subsequent formation of HBV particles. The cells were incubated at 37° C. and 5% CO2.
On day 1, medium was removed from each well, the test articles were diluted in culture medium without doxcycyline and 100 μL was added to cell culture wells (9 concentrations, 4-fold dilution). For each plate, 6 untreated (merely DMSO) wells were included. The final concentration of DMSO in the culture medium was 2%. Each plate was prepared in duplicate (one for HBV DNA extraction, one for ATPlite measurement). The cells were incubated at 37° C. and 5% CO2 for 3 days.
On day 4, cell viability was assessed using ATPlite and cell lysates were prepared for HBV DNA extraction and subsequent quantification by qPCR.
Medium was removed from each well and 100 μL of 0.33% NP-40 in H2O was added to each well. Plates were sealed, incubated at 4° C. for 5 mins, vortexed extensively and centrifuged briefly. Next, 35 μL of lysate was added to 65 μL QuickExtract DNA Extraction Solution (Epicentre) in a PCR plate for each well. PCR plate was incubated at 65° C. for 6 mins, 98° C. for 2 mins and finally cooled to 4° C. HBV DNA was then quantified by qPCR with HBV-specific primers and probes as specified in Table 1 using the Bio-Rad SSOAdvanced Universal Probes Supermix on a CFX96 machine (Bio-Rad). The PCR cycle program consisted of 95° C. for 3 mins, followed by 40 cycles at 95° C. for 10 sec and 60° C. for 30 sec.
A DNA standard was prepared by dilution of an IDT gBlock corresponding to the amplicon with concentrations ranging from 10^2 to 10^8 copies/input (i.e. per 4 μL) and used to generate a standard curve by plotting Cq values vs. HBV DNA standard concentration. The quantity of HBV DNA in each sample was determined by interpolating from the standard curve.
Cell viability was calculated as follows: % Cell viability=(luminescence value of test sample)/(average luminescence value of 2% DMSO control)×100%. HBV DNA inhibition was calculated as follows: 100−(HBV DNA copy number of test sample)/(average HBV DNA copy number of 2% DMSO control)×100%. No normalization to entecavir was required due to the excellent dynamic window of this assay. The CC50, EC50 and EC90 values were determined by dose-response curves fitted using non-linear regression.

What is called EC50 is the concentration needed to bring the measured effect to its halfway point. `CC1Cn2c(c(C(=O)NCc3ccccc3-c3ccncn3)n(-c3ccc(N4CCO[C@H](C(F)(F)F)C4)cc3)c2=O)CN1C(=O)c1ccc(Br)c(C(F)(F)F)c1` (mixture of isomers) [Compound 52a, rac-(6S)-7-[4-bromo-3-(trifluoromethyl)benzoyl]-6-methyl-3-oxo-N-[(2-pyrimidin-4-ylphenyl)methyl]-2-[4-[(2S)-2-(trifluoromethyl)morpholin-4-yl]phenyl]-6,8-dihydro-5H-imidazo[1,5-a]pyrazine-1-carboxamide]: the EC50 is 50 to 500 nM.
The figure for `CC1Cn2c(c(C(=O)NCc3ccccc3-c3ccncn3)n(-c3ccc(N4CCO[C@H](C(F)(F)F)C4)cc3)c2=O)CN1C(=O)c1ccc(Br)c(C(F)(F)F)c1` (mixture of isomers) [Compound 52b, rac-(6R)-7-[4-bromo-3-(trifluoromethyl)benzoyl]-6-methyl-3-oxo-N-[(2-pyrimidin-4-ylphenyl)methyl]-2-[4-[(2S)-2-(trifluoromethyl)morpholin-4-yl]phenyl]-6,8-dihydro-5H-imidazo[1,5-a]pyrazine-1-carboxamide] is less than 50 nM; for `C[C@H](O)COc1ccc(-n2c(C(=O)NCc3ccccc3-c3cccnn3)c3n(c2=O)C[C@H](C)N(C(=O)c2ccc(Br)c(C(F)(F)F)c2)C3)cc1` (mixture of isomers) [Compound 57b, (6SR)-7-[4-bromo-3-(trifluoromethyl)benzoyl]-2-[4-[(2S)-2-hydroxypropoxy]phenyl]-6-methyl-3-oxo-N-[(2-pyridazin-3-ylphenyl)methyl]-6,8-dihydro-5H-imidazo[1,5-a]pyrazine-1-carboxamide] it is 50 to 500 nM.
For `C[C@H](O)COc1ccc(-n2c(C(=O)NCc3ccccc3-c3ccncn3)c3n(c2=O)C[C@@H](C)N(C(=O)c2ccc(Br)c(C(F)(F)F)c2)C3)cc1` (mixture of isomers) [Compound 58a, (6RS)-7-[4-bromo-3-(trifluoromethyl)benzoyl]-2-[4-[(2S)-2-hydroxypropoxy]phenyl]-6-methyl-3-oxo-N-[(2-pyrimidin-4-ylphenyl)methyl]-6,8-dihydro-5H-imidazo[1,5-a]pyrazine-1-carboxamide], the EC50 lay within 50 to 500 nM.
Under `C[C@H](O)COc1ccc(-n2c(C(=O)NCc3ccccc3-c3ccncn3)c3n(c2=O)C[C@H](C)N(C(=O)c2ccc(Br)c(C(F)(F)F)c2)C3)cc1` (mixture of isomers) [Compound 58b, (6SR)-7-[4-bromo-3-(trifluoromethyl)benzoyl]-2-[4-[(2S)-2-hydroxypropoxy]phenyl]-6-methyl-3-oxo-N-[(2-pyrimidin-4-ylphenyl)methyl]-6,8-dihydro-5H-imidazo[1,5-a]pyrazine-1-carboxamide] stands less than 50 nM; under `C[C@@H](O)COc1ccc(-n2c(C(=O)NCc3ccccc3-c3ccccn3)c3n(c2=O)C[C@H](C)N(C(=O)c2ccc(Br)c(C(F)(F)F)c2)C3)cc1` (mixture of isomers) [Compound 60b, (6SR)-7-[4-bromo-3-(trifluoromethyl)benzoyl]-2-[4-[(2R)-2-hydroxypropoxy]phenyl]-6-methyl-3-oxo-N-[[2-(2-pyridyl)phenyl]methyl]-6,8-dihydro-5H-imidazo[1,5-a]pyrazine-1-carboxamide], less than 50 nM.
The figure for `C[C@H](O)COc1ccc(-n2c(C(=O)NCc3ccccc3-c3ccccn3)c3n(c2=O)C[C@@H](C)N(C(=O)c2ccc(Br)c(C(F)(F)F)c2)C3)cc1` (mixture of isomers) [Compound 61a, (6RS)-7-[4-bromo-3-(trifluoromethyl)benzoyl]-2-[4-[(2S)-2-hydroxypropoxy]phenyl]-6-methyl-3-oxo-N-[[2-(2-pyridyl)phenyl]methyl]-6,8-dihydro-5H-imidazo[1,5-a]pyrazine-1-carboxamide] is less than 50 nM.
Take `C[C@H](O)COc1ccc(-n2c(C(=O)NCc3ccccc3-c3ccccn3)c3n(c2=O)C[C@H](C)N(C(=O)c2ccc(Br)c(C(F)(F)F)c2)C3)cc1` (mixture of isomers) [Compound 61b, (6SR)-7-[4-bromo-3-(trifluoromethyl)benzoyl]-2-[4-[(2S)-2-hydroxypropoxy]phenyl]-6-methyl-3-oxo-N-[[2-(2-pyridyl)phenyl]methyl]-6,8-dihydro-5H-imidazo[1,5-a]pyrazine-1-carboxamide]: the EC50 is less than 50 nM.
Under `C[C@@H](O)COc1ccc(-n2c(C(=O)NCc3ccccc3-c3ncccn3)c3n(c2=O)C[C@H](C)N(C(=O)c2ccc(Br)c(C(F)(F)F)c2)C3)cc1` (mixture of isomers) [Compound 64b, (6SR)-7-[4-bromo-3-(trifluoromethyl)benzoyl]-2-[4-[(2R)-2-hydroxypropoxy]phenyl]-6-methyl-3-oxo-N-[(2-pyrimidin-2-ylphenyl)methyl]-6,8-dihydro-5H-imidazo[1,5-a]pyrazine-1-carboxamide] stands 50 to 500 nM.
Under `C[C@@H]1Cn2c(c(C(=O)NCc3ccccc3-c3cccnn3)n(-c3ccc(OC[C@@H](O)C(F)(F)F)cc3)c2=O)CN1C(=O)c1ccc(Br)c(C(F)(F)F)c1` (mixture of isomers) [Compound 66a, (6RS)-7-[4-bromo-3-(trifluoromethyl)benzoyl]-6-methyl-3-oxo-N-[(2-pyridazin-3-ylphenyl)methyl]-2-[4-[(2R)-3,3,3-trifluoro-2-hydroxy-propoxy]phenyl]-6,8-dihydro-5H-imidazo[1,5-a]pyrazine-1-carboxamide] stands 50 to 500 nM; under `C[C@H]1Cn2c(c(C(=O)NCc3ccccc3-c3cccnn3)n(-c3ccc(OC[C@@H](O)C(F)(F)F)cc3)c2=O)CN1C(=O)c1ccc(Br)c(C(F)(F)F)c1` (mixture of isomers) [Compound 66b, (6SR)-7-[4-bromo-3-(trifluoromethyl)benzoyl]-6-methyl-3-oxo-N-[(2-pyridazin-3-ylphenyl)methyl]-2-[4-[(2R)-3,3,3-trifluoro-2-hydroxy-propoxy]phenyl]-6,8-dihydro-5H-imidazo[1,5-a]pyrazine-1-carboxamide], 50 to 500 nM.
Regarding `C[C@@H]1Cn2c(c(C(=O)NCc3ccccc3-c3cccnn3)n(-c3ccc(OC[C@H](O)C(F)(F)F)cc3)c2=O)CN1C(=O)c1ccc(Br)c(C(F)(F)F)c1` (mixture of isomers) [Compound 67a, (6RS)-7-[4-bromo-3-(trifluoromethyl)benzoyl]-6-methyl-3-oxo-N-[(2-pyridazin-3-ylphenyl)methyl]-2-[4-[(2S)-3,3,3-trifluoro-2-hydroxy-propoxy]phenyl]-6,8-dihydro-5H-imidazo[1,5-a]pyrazine-1-carboxamide], the EC50 was in the range of 50 to 500 nM.
The figure for `C[C@H]1Cn2c(c(C(=O)NCc3ccccc3-c3cccnn3)n(-c3ccc(OC[C@H](O)C(F)(F)F)cc3)c2=O)CN1C(=O)c1ccc(Br)c(C(F)(F)F)c1` (mixture of isomers) [Compound 67b, (6SR)-7-[4-bromo-3-(trifluoromethyl)benzoyl]-6-methyl-3-oxo-N-[(2-pyridazin-3-ylphenyl)methyl]-2-[4-[(2S)-3,3,3-trifluoro-2-hydroxy-propoxy]phenyl]-6,8-dihydro-5H-imidazo[1,5-a]pyrazine-1-carboxamide] is less than 50 nM.
